Legend:
[1] = tested on: Wild-typed SAM/SAH riboswitch (Cy3-U20, 3' DNA extension, annealed to anchor DNA) (DNA:RNA, riboswitch, nucleotides 1-52 of strand 1 RNA, 53-70 DNA; strand 2 DNA) GAUACCUGUCACAACGGCUUCCUGGCGUGACGAGGUGACCUCAGUGGAGCAAACCGCTGCCGTCGCTCCG/CGGAGCGACGGCAGCGGT; experiment: smFRET titration, two-state isotherm (pre-folded); conditions: 100 mM KCl, 2 mM MgCl2, 40 mM HEPES pH 7.5, immobilised RNA, text b38 gives 10 μM
[2] = tested on: P1x_C26Z (DNA:RNA, riboswitch, zebularine at 26 (replaces C) of strand 1; nucleotides 1-52 RNA, 53-70 DNA; strand 2 DNA) GAUACCUGUCACAACGGCUUCCUGGCGUGACGAGGUGACCUCAGUGGAGCAAACCGCTGCCGTCGCTCCG/CGGAGCGACGGCAGCGGT; experiment: smFRET titration, two-state isotherm (pre-folded); conditions: 100 mM KCl, 2 mM MgCl2, 40 mM HEPES pH 7.5, immobilised RNA, text b44 gives 41 μM
[3] = tested on: P1x_A14P (DNA:RNA, riboswitch, purine (adenine lacking N6) at 14 (replaces A) of strand 1; nucleotides 1-52 RNA, 53-70 DNA; strand 2 DNA) GAUACCUGUCACAACGGCUUCCUGGCGUGACGAGGUGACCUCAGUGGAGCAAACCGCTGCCGTCGCTCCG/CGGAGCGACGGCAGCGGT; experiment: smFRET titration, two-state isotherm (pre-folded); conditions: 100 mM KCl, 2 mM MgCl2, 40 mM HEPES pH 7.5, immobilised RNA
[4] = tested on: T_G16P (DNA:RNA, riboswitch, purine (adenine lacking N6) at 16 (replaces G, written as G) of strand 1; nucleotides 1-52 RNA, 53-70 DNA; strand 2 DNA) GAUACCUGUCACAACGGCUUCCUGGCGUGACGAGGUGACCUCAGUGGAGCAAACCGCTGCCGTCGCTCCG/CGGAGCGACGGCAGCGGT; experiment: smFRET titration, two-state isotherm (pre-folded); conditions: 100 mM KCl, 2 mM MgCl2, 40 mM HEPES pH 7.5, immobilised RNA
[5] = tested on: PK_C18A/G49U/C50U (DNA:RNA, riboswitch, nucleotides 1-52 of strand 1 RNA, 53-70 DNA; strand 2 DNA) GAUACCUGUCACAACGGAUUCCUGGCGUGACGAGGUGACCUCAGUGGAUUAAACCGCTGCCGTCGCTCCG/CGGAGCGACGGCAGCGGT; experiment: smFRET titration, two-state isotherm (pre-folded); conditions: 100 mM KCl, 2 mM MgCl2, 40 mM HEPES pH 7.5, immobilised RNA
[6] = tested on: P1x_A14C/C26U (DNA:RNA, riboswitch, nucleotides 1-52 of strand 1 RNA, 53-70 DNA; strand 2 DNA) GAUACCUGUCACACCGGCUUCCUGGUGUGACGAGGUGACCUCAGUGGAGCAAACCGCTGCCGTCGCTCCG/CGGAGCGACGGCAGCGGT; experiment: smFRET titration, two-state isotherm (pre-folded); conditions: 100 mM KCl, 2 mM MgCl2, 40 mM HEPES pH 7.5, immobilised RNA
[7] = tested on: Wild-typed SAM/SAH riboswitch (Cy3-U20, 3' DNA extension, annealed to anchor DNA) (DNA:RNA, riboswitch, nucleotides 1-52 of strand 1 RNA, 53-70 DNA; strand 2 DNA) GAUACCUGUCACAACGGCUUCCUGGCGUGACGAGGUGACCUCAGUGGAGCAAACCGCTGCCGTCGCTCCG/CGGAGCGACGGCAGCGGT; experiment: smFRET vectorial folding (Rep-X unwinding), two-state isotherm; conditions: 100 mM KCl, 2 mM MgCl2, 40 mM HEPES pH 7.5, 2 mM ATP, RNA released from cDNA heteroduplex, non-equilibrium

Kd [1]: 11 µM
Kd [2]: 42 µM
Kd [3]: 61 µM
Kd [4]: 607 µM
Kd [5]: > 1000 µM
Kd [6]: 593 µM
apparent Kd [7]: 108 µM
Compound: C[S+](CC[C@H](N)C(=O)O)C[C@H]1O[C@@H](n2cnc3c(N)ncnc32)[C@H](O)[C@@H]1O (stereo partly shown)

From article PMC10516623 (2023)
